Assay results: the supplement of paper PMC10307832

Legend:
Assay in all cases: relative viability (nuclei count vs DMSO), 5 days (fraction); higher = more cells survive
Doramapimod + Olaparib = compound: Cc1ccc(-n2nc(C(C)(C)C)cc2NC(=O)Nc2ccc(OCCN3CCOCC3)c3ccccc23)cc1 [Doramapimod] + O=C(c1cc(Cc2n[nH]c(=O)c3ccccc23)ccc1F)N1CCN(C(=O)C2CC2)CC1 [Olaparib] (partner 8 µM)
Summary of the method: (§1)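 Values are medians from duplicate plates. Each reflects relative viability, defined as the nuclei count of treated wells over that of vehicle wells. Lung cancer cell lines in 1536-well plates were pin-tool dosed one day after seeding with one drug alone or with a fixed anchor-drug dose plus five library-drug doses (not always all listed) in √10 steps, then fixed, stained and imaged at 4× after 5 days.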

RAF265 + Olaparib = compound: Cn1c(Nc2ccc(C(F)(F)F)cc2)nc2cc(Oc3ccnc(-c4ncc(C(F)(F)F)[nH]4)c3)ccc21 [RAF265] + O=C(c1cc(Cc2n[nH]c(=O)c3ccccc23)ccc1F)N1CCN(C(=O)C2CC2)CC1 [Olaparib] (partner 8 µM)
Summary of the method: as §1

Doramapimod + OSI-027 = compound: Cc1ccc(-n2nc(C(C)(C)C)cc2NC(=O)Nc2ccc(OCCN3CCOCC3)c3ccccc23)cc1 [Doramapimod] + COc1cccc2cc(-c3nc([C@H]4CC[C@H](C(=O)O)CC4)n4ncnc(N)c34)[nH]c12 [OSI-027] (partner 0.5 µM)
Summary of the method: as §1

RAF265 + Pictilisib = compound: Cn1c(Nc2ccc(C(F)(F)F)cc2)nc2cc(Oc3ccnc(-c4ncc(C(F)(F)F)[nH]4)c3)ccc21 [RAF265] + CS(=O)(=O)N1CCN(Cc2cc3nc(-c4cccc5[nH]ncc45)nc(N4CCOCC4)c3s2)CC1 [Pictilisib] (partner 1 µM)
Summary of the method: as §1

Cell Line | relative viability (Doramapimod + Olaparib; first compound 0.02 µM) | relative viability (Doramapimod + Olaparib; first compound 0.06325 µM) | relative viability (Doramapimod + Olaparib; first compound 0.2 µM) | relative viability (Doramapimod + Olaparib; first compound 0.6325 µM) | relative viability (Doramapimod + Olaparib; first compound 2 µM) | relative viability (RAF265 + Olaparib; first compound 0.01 µM) | relative viability (RAF265 + Olaparib; first compound 0.03162 µM) | relative viability (RAF265 + Olaparib; first compound 0.1 µM) | relative viability (RAF265 + Olaparib; first compound 0.3162 µM) | relative viability (RAF265 + Olaparib; first compound 1 µM) | relative viability (Doramapimod + OSI-027; first compound 0.02 µM) | relative viability (Doramapimod + OSI-027; first compound 0.2 µM) | relative viability (Doramapimod + OSI-027; first compound 0.6325 µM) | relative viability (Doramapimod + OSI-027; first compound 2 µM) | relative viability (RAF265 + Pictilisib; first compound 0.01 µM) | relative viability (RAF265 + Pictilisib; first compound 0.03162 µM) | relative viability (RAF265 + Pictilisib; first compound 0.1 µM) | relative viability (RAF265 + Pictilisib; first compound 0.3162 µM) | relative viability (RAF265 + Pictilisib; first compound 1 µM) | relative viability (Doramapimod + OSI-027; first compound 0.06325 µM)
NCI-H2347 | 0.618 | 0.641 | 0.546 | 0.575 | 0.53 | 0.644 | 0.606 | 0.57 | 0.523 | 0.384 | 0.509 | 0.474 | 0.452 | 0.423 | 0.789 | 0.952 | 0.652 | 0.629 | 0.245 | –
201T | 0.869 | 1.01 | 0.848 | 0.96 | 0.839 | 0.839 | 0.804 | 0.887 | 0.824 | 0.828 | 0.629 | 0.71 | 0.782 | 0.781 | 0.717 | 0.7 | 0.685 | 0.564 | 0.552 | 0.785
PC-14 | 0.351 | 0.36 | 0.342 | 0.281 | 0.269 | 0.252 | 0.311 | 0.314 | 0.369 | 0.245 | 0.933 | 0.872 | 1.01 | 0.635 | 0.737 | – | 0.733 | – | 0.312 | 0.671
NCI-H1650 | 0.82 | 0.831 | 0.682 | 0.874 | 0.884 | 0.9 | 0.797 | 0.824 | 0.837 | 0.826 | 0.692 | 0.713 | 0.76 | 0.459 | 0.642 | 0.528 | 0.755 | 0.348 | 0.583 | 0.689
NCI-H727 | 0.711 | 0.723 | 0.772 | 0.726 | 0.595 | 0.701 | 0.685 | 0.708 | 0.593 | 0.547 | 0.497 | 0.688 | 0.472 | 0.57 | 0.546 | 0.302 | 0.325 | 0.252 | 0.22 | 0.556
NCI-H1792 | 0.408 | 0.459 | 0.457 | 0.486 | 0.268 | 0.474 | 0.291 | 0.279 | 0.262 | 0.0641 | 0.634 | 0.628 | 0.702 | 0.534 | 0.277 | 0.279 | 0.223 | 0.166 | 0.0856 | 0.672
COR-L23 | 0.368 | 0.351 | 0.368 | 0.315 | 0.379 | 0.395 | 0.329 | 0.305 | 0.307 | 0.184 | 0.688 | 0.84 | 0.806 | 0.621 | 0.874 | 0.663 | 0.626 | 0.368 | 0.323 | 0.892
ChaGo-K-1 | 0.472 | 0.423 | 0.438 | 0.379 | 0.398 | 0.411 | 0.429 | 0.464 | 0.422 | 0.371 | 0.632 | 0.63 | 0.518 | 0.409 | 0.786 | 0.833 | 0.8 | 0.765 | 0.56 | 0.607
HOP-62 | 0.315 | 0.369 | 0.424 | 0.495 | 0.467 | 0.461 | 0.448 | 0.439 | 0.479 | 0.268 | 0.828 | 0.906 | 0.923 | 0.741 | 0.641 | – | 0.726 | 0.426 | 0.179 | 0.81
NCI-H1915 | 0.285 | 0.287 | 0.252 | 0.254 | 0.233 | 0.256 | 0.248 | 0.235 | 0.224 | 0.136 | 0.591 | 0.671 | 0.606 | 0.561 | 0.965 | 0.914 | 0.705 | 0.37 | 0.247 | 0.622
BEN | 1.05 | 1.1 | 1.01 | 0.901 | 0.967 | 1.04 | 1.09 | 1.16 | 1.19 | 0.846 | 0.317 | 0.33 | 0.236 | 0.316 | 0.627 | 0.696 | 0.69 | 0.625 | 0.55 | 0.309
NCI-H1437 | 0.645 | 0.641 | 0.654 | 0.657 | 0.637 | 0.644 | 0.611 | 0.653 | 0.619 | 0.561 | 0.953 | 0.852 | 0.938 | 0.866 | 0.613 | 0.428 | 0.455 | 0.475 | 0.274 | 0.883
EMC-BAC-2 | 0.494 | 0.441 | 0.469 | 0.473 | 0.43 | 0.576 | 0.43 | 0.407 | 0.371 | 0.167 | 0.379 | 0.445 | 0.571 | 0.43 | 0.494 | 0.513 | 0.496 | 0.386 | 0.228 | 0.396
NCI-H647 | 0.475 | 0.488 | 0.509 | 0.443 | 0.444 | 0.422 | 0.494 | 0.357 | 0.399 | 0.306 | 0.702 | 0.706 | 0.711 | 0.639 | 0.38 | 0.342 | 0.383 | 0.259 | 0.208 | 0.546
LXF-289 | 1.03 | 1.01 | 1.05 | 1.08 | 1.02 | 1.08 | 1.06 | 0.998 | 0.748 | 0.551 | 0.765 | 0.72 | 0.686 | 0.605 | 0.857 | 0.655 | 0.577 | 0.361 | 0.374 | 0.762
LOU-NH91 | 0.987 | 0.929 | 0.902 | 1 | 0.737 | 1.02 | 0.831 | 0.9 | 0.675 | 0.737 | 0.776 | 0.738 | 0.769 | 0.559 | 0.529 | 0.487 | 0.495 | 0.481 | 0.474 | 0.752
